Measurements taken from article PMC4696656, “Insights into the Mechanism of Action of Bactericidal Lipophosphonoxins” (PLoS ONE, 2015).

Columns and labels:
[1] = system: B. subtilis 168; assay: Selection for resistant strains, stepwise two-fold increased concentration; assay type: cell-based, Bacillus subtilis; details: 24 h cultures, two-fold increased concentration each transfer; rifampicin from 0.01 mg/L, DR5026 from 0.5 mg/L
Experimental: A) B. subtilis. […] Then, the growth of the culture was evaluated by OD600nm and an aliquot of the culture was transferred to a new tube with fresh medium and a two-fold increased concentration of the active compound. This template was followed until no growth was detected for DR5026 or until B. subtilis grew at 5 mg/L of rifampicin.

[2] = system: mice; assay: MTD test in mouse model, administration per os; assay type: in vivo, Mice ICR; details: for gross pathology findings: males and females
Experimental: (§1) The MTD (maximum tolerated dose) in mouse model was carried out by MediTox s.r.o. on a commercial basis. The complete protocol for the MTD testing can be found in S3 Supporting Information.
(§2) For the administration the appropriate amount of the Test item (TI) was dissolved in water (aqua for injection, B. Braun, Germany) and administered to mice either orally (in the volume of 0.5 mL/25 g of body weight) or intraperitoneally (in the volume of 1.0 mL/25 g of body weight).
(§3) S3 and S4 Tables summarize the test system parameters, the number of animals used, and the doses tested. Briefly, for each dose, 3 males are 3 females were used.
(§4) All animals from the study were observed daily for clinical signs, morbidity or mortality during acclimation, 0.5, 4, 6, 24 and 48 hours after administration. Onset, duration and severity of any signs were recorded, and used as criteria for early euthanasia decisions. The clinical observations included: changes in skin, fur, eyes, occurrence of secretion and excretion; autonomic activity (e.g. lacrimation, piloerection); changes in gait and posture; changes in unprovoked behavior, presence of stereotypes or bizarre behavior; response to handling. Ether was used for anesthesia in compliance with the Standard Operating Procedures (SOPs) of MediTox, the European convention for the protection of vertebrate animals used for experimental and other scientific purposes (ETS 123), the Czech Collection of laws No. 246/1992, inclusive of the amendments, on the Protection of animals against cruelty, and Public Notice of the Ministry of Agriculture of the Czech Republic, Collection of laws No. 419/2012 as amended, on keeping and exploitation of experimental animals. MediTox s.r.o. is a holder of the accreditation Certificate for user’s issued by Central Committee for Animal Protection of the Czech Republic.
(§5) All the animals that died during study or survived to their scheduled euthanasia (cervical dislocation under ether anesthesia) 8th day after the administration received a complete post-mortem examination and microscopic examination of organs showing evidence of gross pathology. The cause of death of animals that died during the study before the scheduled euthanasia was mainly venostasis of kidneys and liver.
(§6) S3 Supporting in formation. MTD test in mouse mo d el – a detailed […]
(§7) The MTD (maximum tolerated dose) in mouse model was carried out by MediTox s.r.o. on the […]
(§8) The stud y w as carried ou t accordin g to:
(§9) ICH M3(R2) – The International Conference on Harmonization of Technical Requirements for Registration of Pharm aceuticals for Human Use. Relevant SOPs (Standard operating procedures ) […]
(§10) Facility Management and Animal Husbandry
(§11) Animal car e was in comp liance with th e SOPs of MediTox s.r.o., the Euro pean convention fo r the protection of vertebrate animals used for experimental and other scientific purposes (ETS 123), the Czech Collection of laws No. 246/1992, inclusive of the amendments, on the Protection of animals against cruelty, and Public Notice of the Ministry of Agriculture of the Czech Republic, Collection of laws No. 419/2012 as amended, on keeping and exploitation of experimental animals. MediTox s.r.o. is a holder of the accreditation Certificate for user’s issued by Central Committee for Animal Protection of the Czech Republic.
(§12) Animal Welfare Act Compliance
(§13) The stud y was prepared for this t ype of ex perimen t and approved b y th e Ins titutional Animal Care and Use Committee ( IAC UC) and the Committee for Animal Protection of the Ministry of Health (PP 09/2013) of the Czech Republic. Procedures used in this report were designed to conform to accepted practices and to minimize or avoid causing pain, distress, or discomfort to the animals.
(§14) The number of animals selected for use in this study was considered to be the minimum number necessar y to meet scienti fic and regulator y guideli nes for this t ype of stud y.
(§15) Preparation of the Test item application formulations […]

[3] = system: mice; assay: MTD test in mouse model, administration intraperitoneally; assay type: in vivo, Mice ICR
Experimental: as §1, §2, §3, §4, §5, §6, §7, §8, §9, §10, §11, §12, §13, §14, §15

[4] = system: Caco-2 monolayers; assay: Transepithelial transport in Caco-2 monolayers; assay type: in vitro ADME; details: 3 h incubation
[5] = D2-IP 500 mg/kg i.p., females, 3 animals
[6] = D2-IP 500 mg/kg i.p., males, 3 animals
[7] = D3-IP 250 mg/kg i.p., females, 3 animals
[8] = D3-IP 250 mg/kg i.p., males, 3 animals
[9] = D4-IP 80 mg/kg i.p., females, 3 animals
[10] = D4-IP 80 mg/kg i.p., males, 3 animals
[11] = D5-IP 50 mg/kg i.p., females, 3 animals
[12] = D5-IP 50 mg/kg i.p., males, 3 animals

## CCCCCCCCCCCCCCCCOP(=O)(CCN1C[C@@H](O)[C@H](O)C1)OC[C@H]1O[C@@H](n2ccc(=O)[nH]c2=O)[C@H](O)[C@@H]1O (stereo partly drawn) [DR5026]
[1]
  development of resistance: failed to obtain cells that would grow at concentrations exceeding the MIC
[2]; D1-PO, 5 mg/kg p.o.
  gross pathology findings: NO FINDINGS
[2]; D2-PO, 500 mg/kg p.o.
  gross pathology findings: NO FINDINGS
[2]; D3-PO, 1000 mg/kg p.o.
  gross pathology findings: NO FINDINGS
[2]; D4-PO, 1500 mg/kg p.o.
  gross pathology findings: NO FINDINGS
[2]; D5-PO, 2000 mg/kg p.o.
  gross pathology findings: NO FINDINGS
[2]; per os 5, 500, 1000, 1500 and 2000 mg/kg, single dose
  signs of toxicity: did not cause any signs of toxicity
[2]; per os 5-2000 mg/kg
  gross pathology changes: no gross pathology changes were detected
[2]; peroral, single dose
  highest peroral dose without any signs of toxicity (maximal tolerated dose): 2000 mg/kg
[3]; D1-IP, 5 mg/kg i.p., males and females
  gross pathology findings: NO FINDINGS
[3]; [5]
  abdominal cavity red liquid, number of animals with finding: 2
  kidneys venostasis, number of animals with finding: 2
  liver venostasis, number of animals with finding: 2
  lungs focal hemorrhage, number of animals with finding: 1
[3]; [6]
  abdominal cavity red liquid, number of animals with finding: 2
  kidneys venostasis, number of animals with finding: 2
  liver venostasis, number of animals with finding: 2
[3]; [7]
  abdominal cavity red liquid, number of animals with finding: 3
  kidneys venostasis, number of animals with finding: 3
  liver venostasis, number of animals with finding: 3
  thoracic cavity red liquid, number of animals with finding: 1
[3]; [8]
  abdominal cavity red liquid, number of animals with finding: 3
  kidneys venostasis, number of animals with finding: 3
  liver venostasis, number of animals with finding: 3
  lungs venostasis, number of animals with finding: 1
  thoracic cavity red liquid, number of animals with finding: 1
[3]; [9]
  liver enlarged, number of animals with finding: 3
  liver rounded edges, number of animals with finding: 3
[3]; [10]
  abdominal cavity red liquid, number of animals with finding: 1
  kidneys venostasis, number of animals with finding: 1
  liver enlarged, number of animals with finding: 2
  liver rounded edges, number of animals with finding: 2
  liver venostasis, number of animals with finding: 1
[3]; [11]
  liver enlarged, number of animals with finding: 3
  liver rounded edges, number of animals with finding: 3
  spleen peritoneal adhesions, number of animals with finding: 1
[3]; [12]
  liver enlarged, number of animals with finding: 3
  liver peritoneal adhesions, number of animals with finding: 2
  liver rounded edges, number of animals with finding: 3
  spleen peritoneal adhesions, number of animals with finding: 2
[3]; administered peritoneally
  safe limit (maximal tolerated dose): 50 mg/kg
[3]; i.p. 80 mg/kg
  clinical signs: all the monitored animals were slightly stolid 5 min after the administration
[3]; i.p. 80 mg/kg, 24-26 hours
  severe clinical signs / moribund animals: In one male a disturbance of locomotion was observed
[3]; i.p. 250 mg/kg and 500 mg/kg
  clinical signs: exacerbated the symptoms
[3]; i.p. 500 mg/kg, several hours after administration, 3 males + 3 females
  mortality: death of 2 males and 2 females
[3]; i.p. 5 and 50 mg/kg
  signs of toxicity: did not cause any signs of toxicity
[4]
  compound in the Caco-2 cell lysate: No compound was detected
[4]; apical to basolateral
  compound at the basolateral (acceptor) side: No compound was detected
